From patent publication US8440637B2, “Combination treatment for the treatment of hepatitis C virus infection” (priority 2007, dated 2013)
Strand notation (5' to 3'): a small letter for the sugar, then the base; units joined by * are phosphorothioate-linked, units joined directly phosphodiester-linked; [ ] holds rarer units or linkages, { } end groups; capitals alone tell only the bases. l = locked nucleic acid (LNA); [5mC] = 5-methylcytosine; d = 2'-deoxy (DNA)

What was measured:
ApoB-100 mRNA [1] = assay: Serum total cholesterol after dosing apoB antisense oligonucleotides; format: in vivo, mouse
Description: Total cholesterol level is measured in plasma using a colometric assay Cholesterol CP from ABX Pentra. The cholesterol is measured following enzymatic hydrolysis and oxidation. 21.5 μL water was added to 1.5 μL plasma. 250 μL reagent is added and within 5 min the cholesterol content is measured at a wavelength of 540 nm. Measurements on each animal was made in duplicates. The sensitivity and linearity was tested with 2 fold diluted control compound (ABX Pentra N control). The relative Cholesterol level was determined by subtraction of the background and presented relative to the cholesterol levels in plasma of saline treated mice.
(§1) In this study 5 mg/kg/dose were dosed on 3 consecutive days (one dose/day i.v.) and animals were sacrificed 24 hours after last dosing. At sacrifice, liver and retro orbital sinus blood was sampled. Serum was prepared from blood for analysis of cholesterol. RNA was isolated from the liver and the expression of ApoB-100 mRNA was measured.
(§2) In this study three different concentrations (10, 15 and 25 mg/kg) of SEQ ID NO 17 (Table 1) and SEQ ID NO 34 (Table 1) were examined for duration of action on ApoB-100 mRNA expression and serum cholesterol level. SEQ ID NO 17 and SEQ ID NO 34 were given as a single dose of 10, 15 or 25 mg/kg to C57BL/6 female mice. Mice were sacrificed at different time points (1, 3, 5 and 8 days) after dosing; liver and serum were examined for ApoB-100 mRNA expression, liver oligonucleotide concentration and cholesterol and ALT, respectively.
Blood serum used to measure cholesterol was sampled at sacrifice. Twenty-four hours after dosing SEQ ID NO 17 serum total cholesterol was reduced 25-40%, and dosing SEQ ID NO 34 gave 40-55% reduction in total cholesterol. At day 3, the total cholesterol level was further reduced: SEQ ID NO 17 gave 70-90% reduction in a dose dependent manner after doing 10, 15 or 25 mg/kg. SEQ ID NO 34 reduced total cholesterol with 90-95% relative to the saline control group. At day 5-8 the total cholesterol level increased in all groups except the group dosed SEQ ID NO 17 at 10 mg/kg. (FIG. 4.).
Blood serum was sampled at sacrifice and used to measure cholesterol. The serum total cholesterol level reflected the mRNA expression of ApoB-100; dose dependent reduction with best effect at 5 days after dosing SEQ ID NO 17 at 1 and 2.5 mg/kg and similar effect at days 3, 5 and 8 after dosing 5 mg/kg (50% reduction). Dose dependent effect was also obtained after dosing SEQ ID NO 34 with best effect at day 3 after dosing 5 mg/kg (70% reduction) with following increase in cholesterol level (60% reduction at day 8 and 45% at day 16).
At sacrifice blood for serum was sampled and used to measure cholesterol.

ApoB-100 mRNA [2] = assay: ApoB-100 mRNA expression in liver by qPCR after dosing apoB antisense oligonucleotides; format: in vivo, mouse; conditions: for ApoB-100 mRNA down-regulation (in words): 10, 15 or 25 mg/kg SEQ ID NO 34, 25 mg/kg SEQ ID NO 17; for down regulation of ApoB-100 mRNA relative to saline: single dose of 10, 15 or 25 mg/kg, C57BL/6 female mice, 24 hours after dosing; for reduction of ApoB-100 mRNA expression: day 8
Description: as §1, §2
(§3) Liver sampled at sacrifice was analysed for ApoB-100 mRNA expression by qPCR. Data was normalized to Gapdh and presented relative to the data obtained by dosing saline. One dose of 10, 15 or 25 mg/kg of SEQ ID NO 17 or SEQ ID NO 34 was very effective to down regulate ApoB-100 mRNA in liver (FIG. 3).
A single dose of SEQ ID NO 17 (Table 1) and SEQ ID NO 34 (Table 1) at different concentrations was administered to C57BL/6J mice to find ED50 values for cholesterol. Duration of action was also included in this study, because we previously have seen that maximum effect of a single dose not always was achieved 24 hours after dosing. […] In this study we therefore have chosen lower concentrations (1, 2.5 and 5 mg/kg).
Liver sampled at sacrifice was analysed for ApoB-100 mRNA expression by qPCR. Data was normalized to Gapdh and presented relative to the data obtained by dosing saline. One dose of 10, 15 or 25 mg/kg of SEQ ID NO 17 or SEQ ID NO 34 was very effective to down regulate ApoB-100 mRNA in liver (FIG. 5).
The effect on ApoB-100 mRNA was examined at different days after dosing 1.0 or 5.0 mg/kg (one dose day 0) of the three LNA antisense oligonucleotides 12-mer SEQ ID NO 34 (Table 1), SEQ ID NO 26 (Table 1) 13-mer and 14-mer SEQ ID NO 17 (Table 1) all targeting ApoB mRNA.
as §3, with “Dosing 3* 1” for “One dose of 10, 15”, “5” for “25”, “of SEQ ID NO 34,” for “of”, “26” for “34”, “7). […] SEQ ID NO 17 dosed 3* 1 mg/kg/dose or 5 mg/kg/dose down regulated target mRNA with 50% and 70% respectively.” for “3).”

miR-122a [3] = assay: Melting temperature (Tm) of LNA anti-miR/miR-122a RNA duplex; format: physicochemical, human; conditions: Table 2; towards synthetic miR-122a RNA oligonucleotide with phosphorothioate linkages; PS backbone
Description: The melting temperatures were assessed towards the mature miR-122a sequence, using a synthetic miR-122a RNA oligonucleotide with phosphorothioate linkaged.
The LNA anti-miR/miR-122a oligo duplex was diluted to 3 μM in 500 μl RNase free H2O, which was then mixed with 500 μl 2× dimerization buffer (final oligo/duplex conc. 1.5 μM, 2× Tm buffer: 200 mM NaCl, 0.2 mM EDTA, 20 mM NaP, pH 7.0, DEPC treated to remove RNases). The mix was first heated to 95 degrees for 3 minutes, then allowed to cool at room temperature (RT) for 30 minutes.
Following RT incubation Tm was measured on Lambda 40 UV/VIS Spectrophotometer with peltier temperature progammer PTP6 using PE Templab software (Perkin Elmer). The temperature was ramped up from 20° C. to 95° C. and then down again to 20° C., continuously recording absorption at 260 nm. First derivative and local maximums of both the melting and annealing was used to assess melting/annealing point (Tm), both should give similar/same Tm values. For the first derivative 91 points was used to calculate the slope.

miR-122a [4] = assay: miR-122a levels in mouse liver by microRNA specific qPCR; format: in vivo; conditions: 25 mg/kg i.v. on 3 successive days; 24 hour after last dose
Description: Total RNA was extracted from liver samples as described above and analysed for miR-122a levels by microRNA specific QPCR.
In vivo study: Ten groups of animals (female C57/BL6; 3 mice per group) were treated in the following manner. Group 1 animals were injected with 0.2 ml saline by i.p. on day 0, day 2 and day 4. Groups 2-10 were dosed by i.p. with three different conc. (25 mg/kg, 5 mg/kg and 1 mg/kg) of either LNA antimiR-122a/SEQ ID NO: 61 (group 2-4), LNA antimir-122a/SEQ ID NO: 66 (group 5-7) or LNA antimir-122a/SEQ ID NO: 63 (group 8-10); the LNA antimir-122a sequences are given in the Table 1. All three LNA antimiR-122a oligonucleotides target the liver-specific miR-122a. The doses were calculated from the Day 0 body weights of each animal.
The animals were sacrificed 48 hours after last dose (Day 6), retro-orbital blood was collected in tubes containing EDTA and the plasma fraction harvested and stored frozen −80° C. for cholesterol analysis. At sacrifice livers were dissected and one portion was cut into 5 mm cubes and immersed in 5 volumes of ice-cold RNAlater. A second portion was snap frozen in liquid nitrogen and stored for cryo-sectioning.
Total RNA was extracted from liver samples using Trizol reagent according to the manufacturer's recommendations (Invitrogen, USA) and analysed for miR-122a levels by microRNA-specific QPCR according to the manufacturer's recommendations (Ambion, USA). […]
NMRI female mice were treated with indicated doses of LNA-antimiR (SEQ ID NO: 61) along with a mismatch control (m, SEQ ID NO: 65), saline and antagomir (SPC3595) for three consecutive days and sacrificed 24 hours after last dose (as in example 11 “old design”, n=5). miR-122 levels were analyzed by qPCR and normalized to the saline treated group.
C57BL/6J female mice were fed on high fat diet for 13 weeks before the initiation of the SEQ ID NO: 63 treatment. […] Both hypercholesterolemic and normal mice were treated i.p. twice weekly with 5 mg/kg SEQ ID NO: 63 and the corresponding mismatch control for a study period of 5½ weeks. Blood samples were collected weekly and total plasma cholesterol was measured during the entire course of the study. Upon sacrificing the mice, liver and blood samples were prepared for total RNA extraction, miRNA and mRNA quantification, assessment of the serum transaminase levels, and liver histology.
The miR-122 and let-7a microRNA levels were quantified with TaqMan microRNA Assay (Applied Biosystems) following the manufacturer's instructions. The RT reaction was diluted ten times in water and subsequently used for real time PCR amplification according to the manufacturer's instructions. A two-fold cDNA dilution series from liver total RNA of a saline-treated animal or mock transfected cells cDNA reaction (using 2.5 times more total RNA than in samples) served as standard to ensure a linear range (Ct versus relative copy number) of the amplification. Applied Biosystems 7500 or 7900 real-time PCR instrument was used for amplification.

[5] = single dose of 10, 15 or 25 mg/kg, 24 hours after dosing
[6] = single dose of 10, 15 or 25 mg/kg, day 3
[7] = liver, 3 doses of 5 mg/kg/dose i.v. on consecutive days, 24 hours after last dosing

5′-AsGs^MeCsaststsgsgstsastsTs^MeCsA-3′ (antisense lA*lG*l[5mC]*dA*dT*dT*dG*dG*dT*dA*dT*lT*l[5mC]*lA) [SEQ ID NO: 17]
reduction of serum cholesterol (ApoB-100 mRNA [1]; dosing 3*1 mg/kg): 40%
reduction of serum cholesterol (ApoB-100 mRNA [1]; dosing 3*5 mg/kg/dose): 70%
reduction of serum total cholesterol (ApoB-100 mRNA [1]; single dose 5 mg/kg, days 3, 5 and 8): 50%
reduction of serum total cholesterol (ApoB-100 mRNA [1]; [5]): 25-40%
reduction of serum total cholesterol (ApoB-100 mRNA [1]; [6]): 70-90%
ApoB-100 mRNA down-regulation (in words) (ApoB-100 mRNA [2]): completely down-regulated
down regulation of ApoB-100 mRNA (ApoB-100 mRNA [2]; [7]): about 75%
down regulation of ApoB-100 mRNA (ApoB-100 mRNA [2]; liver, dosing 3*1 mg/kg i.v.): 50%
down regulation of ApoB-100 mRNA (ApoB-100 mRNA [2]; liver, dosing 3*5 mg/kg i.v.): 70%
down regulation of ApoB-100 mRNA relative to saline (ApoB-100 mRNA [2]; liver): 70-85%
reduction of ApoB-100 mRNA expression (ApoB-100 mRNA [2]; single dose 5 mg/kg): 75%
duration of dose dependent down regulation of ApoB-100 mRNA (ApoB-100 mRNA [2]; single dose of 1, 2.5 or 5 mg/kg, C57BL/6J mice): 5 days

5′-AsGs^MeCsaststsgsgstsastsTs^MeCsAsg-3′ (antisense lA*lG*l[5mC]*dA*dT*dT*dG*dG*dT*dA*dT*lT*l[5mC]*lA*dG) [SEQ ID NO: 16]
reduction of serum total cholesterol (ApoB-100 mRNA [1]; 3 doses of 5 mg/kg/dose i.v., at sacrifice, day 3): about 18%
down regulation of ApoB-100 mRNA (ApoB-100 mRNA [2]; [7]): 25-30%

5′-CCAttgtcacacTCCa-3′ (antisense l[5mC]*l[5mC]*lA*dT*dT*dG*dT*dC*dA*dC*dA*dC*lT*l[5mC]*l[5mC]*dA) [SEQ ID NO: 62]
Tm (° C.) (miR-122a [3]): 69 °C

5′-Gs^MeCsaststsgsgstsastsTs^MeC-3′ (antisense lG*l[5mC]*dA*dT*dT*dG*dG*dT*dA*dT*lT*l[5mC]) [SEQ ID NO: 34]
effect on serum total cholesterol (in words) (ApoB-100 mRNA [1]; 3 doses of 5 mg/kg/dose i.v., day 3, oligos of different length compared): the best or the most potent effect
reduction of serum cholesterol (ApoB-100 mRNA [1]; dosing 3*1 mg/kg): 60%
reduction of serum total cholesterol (ApoB-100 mRNA [1]; single dose 5 mg/kg, day 3): 70%
reduction of serum total cholesterol (ApoB-100 mRNA [1]; single dose 5 mg/kg, day 8): 60%
reduction of serum total cholesterol (ApoB-100 mRNA [1]; single dose 5 mg/kg, day 16): 45%
reduction of serum total cholesterol (ApoB-100 mRNA [1]; [5]): 40-55%
reduction of serum total cholesterol (ApoB-100 mRNA [1]; [6]): 90-95%
ApoB-100 mRNA down-regulation (in words) (ApoB-100 mRNA [2]): completely down-regulated
down regulation of ApoB-100 mRNA (ApoB-100 mRNA [2]; [7]): about 75%
down regulation of ApoB-100 mRNA (ApoB-100 mRNA [2]; liver, dosing 3*1 mg/kg i.v.): 60%
down regulation of ApoB-100 mRNA (ApoB-100 mRNA [2]; liver, dosing 3*5 mg/kg i.v.): 90%
down regulation of ApoB-100 mRNA relative to saline (ApoB-100 mRNA [2]; liver): 90-95%
reduction of ApoB-100 mRNA expression (ApoB-100 mRNA [2]; single dose 2.5 mg/kg): 75%
ApoB-100 mRNA down regulation (ApoB-100 mRNA [2]; single dose 5 mg/kg, day 16): 75%
down regulation of ApoB-100 mRNA (ApoB-100 mRNA [2]; single dose 5 mg/kg, days 5-16): about 75%

5′-Gs^MeCsaststsgsgstsastsTs^MeCsA-3′ (antisense lG*l[5mC]*dA*dT*dT*dG*dG*dT*dA*dT*lT*l[5mC]*lA) [SEQ ID NO: 26]
reduction of serum cholesterol (ApoB-100 mRNA [1]; dosing 3*1 mg/kg): 60%
down regulation of ApoB-100 mRNA (ApoB-100 mRNA [2]; liver, dosing 3*1 mg/kg i.v.): 60%
down regulation of ApoB-100 mRNA (ApoB-100 mRNA [2]; liver, dosing 3*5 mg/kg i.v.): 90%

5′-cCatTgtCacActCca-3′ (antisense dC*l[5mC]*dA*dT*lT*dG*dT*l[5mC]*dA*dC*lA*dC*dT*l[5mC]*dC*dA) [SEQ ID NO: 60]
Tm (° C.) (miR-122a [3]): 75 °C

5′-ccAttGtcTcaAtcCa-3′ (antisense dC*dC*lA*dT*dT*lG*dT*dC*lT*dC*dA*lA*dT*dC*l[5mC]*dA) [SEQ ID NO: 65, reference compound]
Tm (° C.) (miR-122a [3]): 46 °C
miR-122a inhibition in liver (in words) (miR-122a [4]): no miR-122a inhibition was detected
